One molecule from patent US9937178B2, “Methods of identifying and using MDM2 inhibitors” (DUKE UNIVERSITY, priority 2011, dated 2018) can be followed below.

Structures are written as SMILES.

Common to all, as to assay type: cell-based
For one assay, the system named is Mcl-1. As to the kind of experiment: 35[S]-Mcl-1 degradation in cell-free lysates. To be noted: resistant cell lysates, only from cells treated with lapatinib (rBT474). The protocol: FIG. 3 is a set of photographs showing that Mcl-1 is stabilized in lapatinib-resistant cells. […] FIG. 3B is a set of immunoblots showing the levels of HER2 and phospho-HER2 in untreated cells and cells treated with lapatinib. Cells were treated with or without lapatinib (1 μM) for 24 hours in the presence of the caspase inhibitor z-VAD (50 μM). The cells were harvested and cell lysates were immunoblotted using antibodies against phospho-HER2 (Y877) and total HER2. FIG. 3C is an immunoblot for phospho-AKT (T308) and total AKT. BT474 and rBT474 cells were treated with 1 μM lapatinib in the presence of 50 μM z-VAD. At the indicated time points, the cells were harvested and immunoblotted. FIG. 3D is an immunoblot for phospho-Erl1/2(T202/Y204) and total Erk1/2. BT474 and rBT474 cells were treated with 1 μM lapatinib in the presence of 50 μM z-VAD. At the indicated time points, the cells were harvested and immunoblotted. […] FIG. 3F is an autoradiograph showing the ^35[S] radioactivity in lysates containing ^35[S]-Mcl-1 at the indicated time points. ^35[S]-labeled Mcl-1 protein was incubated in cell-free lysates prepared from BT474 and rBT474 cells (top) or SKBR3 and rSKBR3 cells (bottom). […] FLAG-Mcl-1 was retrieved by immunoprecipitation using anti-flag agarose, and Mcl-1 ubiquitylation was analyzed by immunoblotting for HA (*non-specific band, **IgG heavy chain). […]

The next assay relates to PP5. As to the kind of experiment: Immunoblot of PP5 protein levels. As to conditions: 1 μM lapatinib. The protocol:
FIG. 7 is a set of photographs and graphs showing PP5 stability and post-cytochrome c protection in lapatinib-resistant cells. FIG. 7A is an immunoblot for caspase-9 (cleaved and non-cleaved) and cleaved caspase-3 (C9 and C3, respectively) showing rBT474 cells cultured in the absence or presence of 1 μM lapatinib for one week, as compared to BT474 cells which were maintained without lapatinib. Cytosolic lysates prepared from BT474 or rBT474 were incubated with 1 mM dATP and various amounts of cytochrome c (CC). FIG. 7B is a set of graphs showing Caspase 3 activity in the indicated cell lysates over time. Caspase-3 activity was assayed by measuring cleavage of DEVD-pNA following incubation of the cell lysates with 1 mM dATP and various concentrations of cytochrome c. FIG. 7C is an autoradiograph of ^32P and an immunoblot showing the percentage of the protein phosphorylated. In the presence of [γ-^32P]ATP, recombinant His-tagged HSP90β proteins (wild type and the indicated mutants) on nickel beads were incubated with the HSP90β-targeted kinase casein kinase 2. FIG. 7D is an autoradiograph and corresponding immunoblot showing BT474 or rBT474 cells after being cultured in the absence or presence of 1 μM lapatinib for 24 hours in the presence of z-VAD. Recombinant His-tagged HSP90β protein on nickel beads was incubated with the cell lysates in the presence of [γ-^32P]ATP. FIG. 7E is an immunoblot for phospho-Hsp90β (Ser226) and total HSP90β at various time points. […] FIG. 7F is a set of graphs showing FACS analysis for the phosphorylation status of Hsp90β (Ser255). BT474 or rBT474 cells cultured in the presence of 1 μM lapatinib for 24 hours were fixed with formaldehyde and incubated with phospho-Hsp90β (Ser255) antibody followed by an Alexa488-conjugated secondary antibody. FIG. 7G is an immunoblot for PP5 and actin at the indicated time points. BT474 and rBT474 (left) or AU565 and rAU565 cells (right) were treated with 1 μM lapatinib. FIG. 7H is an autoradiograph of immunoprecipitated FLAG-PP5 using an anti-FLAG agarose. […]
In general terms: In western blotting, separated proteins are transferred to a membrane and probed.

A further assay relates to Huwe1. In words: Immunoblot of Huwe1 protein levels and stability. The protocol:
FIG. 13 is a set of immunoblots showing MDM2-mediated ubiquitylation and degradation of Huwe1 in lapatinib-resistant cells. […] Cells treated with 1 μM lapatinib were harvested at various time points and immunoblotted. […] FIG. 13B is an immunoblot for HA and actin. BT474 and rBT474 cells were transiently transfected with HA-tagged Huwe1 and subsequently treated with 50 μg/ml cycloheximide (CHX) and 1 μM lapatinib. FIG. 13C is an immunoblot for Huwe1 and MDM2. Immunoprecipitation was carried out using H1299 cell lysates and anti-Huwe1 antibody (or control IgG). FIG. 13D is an immunoblot for HA or MDM2 after immunoprecipitation with HA. BT474 cells were transfected with HA-tagged Huwe1 encoding the full-length protein, residues 1-2474, or residues 2473-4374. […] H1299 cells were transfected with empty vector, HA-Huwe1^W1202A, or HA-Huwe1 wild type. FIG. 13F is an immunoblot for Huwe1 and Actin. BT474 cells were transfected with increasing amounts of MDM2 and harvested after 48 hours. FIG. 13G is an immunoblot for Huwe1, MDM2, and actin. […] FIG. 13H is an immunoblot for Huwe1. Ubiquitylation of Huwe1 was reconstituted in vitro by incubating recombinant Huwe1 protein (Huwe1^1-2474) with E1, UbcH5 (E2), ubiquitin (Ub), and recombinant MDM2 protein in reaction buffer at 37° C. for 3 hours. […] Twenty-four hours later, the cells were replated and further transfected with HA-tagged Huwe1 (wild type). Forty-eight hours after siRNA transfection, the cells were treated with 1 μM lapatinib. After 24 hours of lapatinib treatment, 50 μg/ml cycloheximide (CHX) was added to the culture medium and cells were harvested at various time points for immunoblotting.

Regarding `CS(=O)(=O)CCNCc1ccc(-c2ccc3ncnc(Nc4ccc(OCc5cccc(F)c5)c(Cl)c4)c3c2)o1` [lapatinib], the Mcl-1 protein half-life result in the assay with Mcl-1 is recorded as “prolonged”. Further, the results for the PP5 levels entry with PP5 (resistant cells) and with PP5 (sensitive cells) were “unaltered” and “gradual decrease”, respectively. Moreover, in the assay on Huwe1 (lapatinib-treated rBT474 cells compared to BT474 cells, 50 μg/ml cycloheximide), the Huwe1 protein half-life entry is given as “significantly shorter”. In the assay with Huwe1 (parental cells, 1 μM lapatinib), the Huwe1 protein levels result was “remained stable”. The Huwe1 levels result in the assay with Huwe1 (resistant cells, 1 μM lapatinib) was “significantly decreased”.
